In US11149056B2, “C7 substituted oxysterols and methods of use thereof” (Sage Therapeutics, Inc., priority 2016, dated 2021):
pEC50: −log10 of the molar value.

Legend:
[1] = molecular target: glutamate-activated channels of the GRIN1/2A subtype (Homo sapiens (Human), UniProt Q05586+Q12879); assay: Automated patch-clamp (QPatch HTX), NMDA receptor GRIN1/2A in HEK 293 cells; assay type: cell-based; conditions: HEK 293 cells stably transfected with GRIN1/2A; 300 μM NMDA + 8 μM glycine; holding potential −80 mV; read-out: AVG_ EC50 2A
Description: (§1) Automated Patch-Clamp System (OPatch HTX)
In this study, HEK 293 cells stably transfected with glutamate-activated channels of the GRIN1/2A subtype will be used together with submaximal NMDA concentrations (300 μM NMDA, co-application with 8 μM Glycine) to investigate the negative allosteric modulation of the test compounds.
(§2) In general, cells will be passaged at a confluence of about 80% to […]. For electrophysiological measurements cells will be harvested at a confluence of about 80% to 90% from sterile culture flasks containing culture complete medium. Cells will be transferred as suspension in PBS to the QPatch 16X or QPatch HTX system to; the centrifuge/washer directly. Standard Laboratory Conditions; Cells will be incubated at 37° C. in a humidified atmosphere with 5% CO2 (rel. humidity about 95%). Culture media: The cells will be continuously maintained in and passaged in sterile culture flasks containing a 1:1 mixture of Dulbecco's modified eagle medium and nutrient mixture F-12 (D-MEM/F-12 1×, liquid, with L-Glutamine) supplemented with 10% fetal bovine serum, 1% Penicillin/Streptomycin solution, and 50 μM AP-5 blocker. Antibiotics: The complete medium as indicated above is supplemented with 100 μg/mL hygromycin, 15 μg/mL blasticidin and 1 μg/mL puromycin. Induction of Expression-. 2.5 μg/mL tetracycline is added 24 h before start of experiments. Dose Formulation Dose levels are in terms of test compounds, as supplied. Vehicle will be added to achieve a stock concentration of 10 mM (storage at −10° C. to −30° C.). A further stock solutions of 1.0 mM will be prepared in DMSO. Details of stock solution usage (thawing, dose formulations) will be documented in the raw data. The time period of stock solution usage will be detailed in the report. Test Compound Concentrations Dose levels, are in terms of test compounds, as supplied. Vehicle will be added to achieve a stock concentration of 10 mM (storage at −10° C. to −30° C.). A further stock solutions of 1.0 mM will be prepared in DMSO. Details of stock solution usage (thawing, dose formulations) will be documented in the raw data. The time period of stock solution usage will be detailed in the report. One test concentration of 1.0 μM will be tested. All test solutions will be prepared by diluting the stock solutions with either Mg-free bath solution only or Mg-free bath solution containing NMDA (300 μM) and glycine (8.0 μM) shortly prior to the electrophysiological experiments and kept at room temperature (19° C. to 30° C.) when in use. 0.1% DMSO will be used as vehicle. Frequency of preparation. For each test concentration, fresh solutions of test compounds will be prepared every day. Stability of dose formulation: All preparation times will be documented in the raw data. Any observations regarding instability of test compounds will be mentioned in the raw data. Storage of dose formulation: On the day of experimentation dose formulations will be maintained at room temperature (19° C. to 30° C.) when in use, Bath Solutions For preparing the experiments and for formation of the giga-ohm-seal, the following standard bath solution will be used: Sodium Chloride: 137 mM; Potassium Chloride: 4 mM; Calcium Chloride: 1.8 mM; Magnesium Chloride: 1 mM; HEPES: 10 mM; D-Glucose: 10 mM; Cremophor: 0.02%; pH (NaOH): 7.4
The 1× bath solution will be prepared by diluting 10× bath solution without Glucose and 100× Glucose solution with water at least every 7 days. Both stock solutions have been prepared prior to the experimental start of the present study and stored at 1° C. to 9° C. (10× bath solution) or −10° C. to −30° (100× Glucose solution). The batch number(s) of the bath solution(s) used in the experiments will be documented in the raw data. When muse, the 1× bath solution will be kept at room temperature (19° C. to 30° C.). When not in use, the 1× bath solution will be stored at 1° C. to 9° C.
After the giga-seal was formed the following Mg-free bath solution will be used: […]

NMDA receptor 2B = NMDA receptor 2B (Homo sapiens (Human), UniProt Q05586+Q13224); assay: Automated patch-clamp (QPatch HTX), NMDA receptor 2B subtype; assay type: cell-based; conditions: for Emax: read-out: AVG_ EMAX 2B %
Description: as §1, §2
The 1× intracellular solution will be thawed every day out of a frozen 1× intracellular solution, which has been prepared prior to the experimental start of the present study, aliquoted and stored at −10° C. to −30° C. When in use, the 1× intracellular solution will kept at room temperature (19° C. to 30° C.). Remaining 1× intracellular solution will be stored in the fridge (1° C. to 9° C.). The 1× intracellular solution will include the components outlined below: Potassium Chloride: 130 mM; Magnesium Chloride: 1 mM; Mg-ATP: 5 mM; HEPES: 10 mM; EGTA: 5 mM; pH (KOH): 7.2 Cell Treatment For this study, cells will continuously be perfused with NMDA/Glycine, Test Compound or Test Compound/NMDA/Glycin. In every case, at least 30-second prewash steps with a test compound will be performed in between applications. For details see Table A below. Each experiment type will be analyzed in at least n=3 isolated cells. […]

Sequence of NMDA receptor 2B (Q13224 27-1484, other chains not shown): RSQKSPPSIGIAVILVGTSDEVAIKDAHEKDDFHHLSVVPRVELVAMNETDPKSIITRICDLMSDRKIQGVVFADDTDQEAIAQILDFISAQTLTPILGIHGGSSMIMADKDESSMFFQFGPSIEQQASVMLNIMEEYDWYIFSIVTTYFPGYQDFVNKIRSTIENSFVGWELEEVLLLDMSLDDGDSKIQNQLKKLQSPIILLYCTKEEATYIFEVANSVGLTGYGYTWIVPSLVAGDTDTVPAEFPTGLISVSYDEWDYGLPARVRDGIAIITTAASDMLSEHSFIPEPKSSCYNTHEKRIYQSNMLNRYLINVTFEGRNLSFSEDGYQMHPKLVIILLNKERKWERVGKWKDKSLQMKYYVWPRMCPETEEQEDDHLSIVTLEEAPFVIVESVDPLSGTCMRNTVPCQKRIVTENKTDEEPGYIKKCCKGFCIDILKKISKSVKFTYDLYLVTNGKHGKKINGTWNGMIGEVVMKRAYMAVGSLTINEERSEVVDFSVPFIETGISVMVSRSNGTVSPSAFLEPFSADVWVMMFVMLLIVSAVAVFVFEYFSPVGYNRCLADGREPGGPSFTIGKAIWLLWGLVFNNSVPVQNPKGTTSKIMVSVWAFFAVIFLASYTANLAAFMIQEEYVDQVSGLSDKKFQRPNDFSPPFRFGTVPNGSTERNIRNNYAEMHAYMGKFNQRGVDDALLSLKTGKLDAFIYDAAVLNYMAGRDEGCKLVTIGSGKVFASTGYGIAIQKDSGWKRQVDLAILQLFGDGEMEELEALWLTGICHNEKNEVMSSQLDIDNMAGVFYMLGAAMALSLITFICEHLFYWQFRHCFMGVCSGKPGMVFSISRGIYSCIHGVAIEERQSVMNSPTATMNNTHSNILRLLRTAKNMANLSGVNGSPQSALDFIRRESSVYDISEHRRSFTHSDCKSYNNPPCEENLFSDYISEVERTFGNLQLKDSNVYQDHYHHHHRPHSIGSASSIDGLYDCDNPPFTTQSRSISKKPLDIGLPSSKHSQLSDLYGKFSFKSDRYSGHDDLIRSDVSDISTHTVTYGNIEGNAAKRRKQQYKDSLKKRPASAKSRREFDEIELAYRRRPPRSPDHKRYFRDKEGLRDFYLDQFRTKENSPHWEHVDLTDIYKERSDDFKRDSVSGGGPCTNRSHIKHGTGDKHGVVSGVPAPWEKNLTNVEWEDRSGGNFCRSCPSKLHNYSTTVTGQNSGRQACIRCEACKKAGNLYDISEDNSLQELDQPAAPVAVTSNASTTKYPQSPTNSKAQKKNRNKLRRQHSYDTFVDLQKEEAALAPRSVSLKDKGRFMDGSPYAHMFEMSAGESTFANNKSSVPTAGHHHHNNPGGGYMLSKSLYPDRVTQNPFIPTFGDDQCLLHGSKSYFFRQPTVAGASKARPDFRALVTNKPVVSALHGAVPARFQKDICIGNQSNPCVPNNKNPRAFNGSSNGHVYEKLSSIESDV
Sequence of glutamate-activated channels of the GRIN1/2A subtype (Q12879 23-1464, other chains not shown): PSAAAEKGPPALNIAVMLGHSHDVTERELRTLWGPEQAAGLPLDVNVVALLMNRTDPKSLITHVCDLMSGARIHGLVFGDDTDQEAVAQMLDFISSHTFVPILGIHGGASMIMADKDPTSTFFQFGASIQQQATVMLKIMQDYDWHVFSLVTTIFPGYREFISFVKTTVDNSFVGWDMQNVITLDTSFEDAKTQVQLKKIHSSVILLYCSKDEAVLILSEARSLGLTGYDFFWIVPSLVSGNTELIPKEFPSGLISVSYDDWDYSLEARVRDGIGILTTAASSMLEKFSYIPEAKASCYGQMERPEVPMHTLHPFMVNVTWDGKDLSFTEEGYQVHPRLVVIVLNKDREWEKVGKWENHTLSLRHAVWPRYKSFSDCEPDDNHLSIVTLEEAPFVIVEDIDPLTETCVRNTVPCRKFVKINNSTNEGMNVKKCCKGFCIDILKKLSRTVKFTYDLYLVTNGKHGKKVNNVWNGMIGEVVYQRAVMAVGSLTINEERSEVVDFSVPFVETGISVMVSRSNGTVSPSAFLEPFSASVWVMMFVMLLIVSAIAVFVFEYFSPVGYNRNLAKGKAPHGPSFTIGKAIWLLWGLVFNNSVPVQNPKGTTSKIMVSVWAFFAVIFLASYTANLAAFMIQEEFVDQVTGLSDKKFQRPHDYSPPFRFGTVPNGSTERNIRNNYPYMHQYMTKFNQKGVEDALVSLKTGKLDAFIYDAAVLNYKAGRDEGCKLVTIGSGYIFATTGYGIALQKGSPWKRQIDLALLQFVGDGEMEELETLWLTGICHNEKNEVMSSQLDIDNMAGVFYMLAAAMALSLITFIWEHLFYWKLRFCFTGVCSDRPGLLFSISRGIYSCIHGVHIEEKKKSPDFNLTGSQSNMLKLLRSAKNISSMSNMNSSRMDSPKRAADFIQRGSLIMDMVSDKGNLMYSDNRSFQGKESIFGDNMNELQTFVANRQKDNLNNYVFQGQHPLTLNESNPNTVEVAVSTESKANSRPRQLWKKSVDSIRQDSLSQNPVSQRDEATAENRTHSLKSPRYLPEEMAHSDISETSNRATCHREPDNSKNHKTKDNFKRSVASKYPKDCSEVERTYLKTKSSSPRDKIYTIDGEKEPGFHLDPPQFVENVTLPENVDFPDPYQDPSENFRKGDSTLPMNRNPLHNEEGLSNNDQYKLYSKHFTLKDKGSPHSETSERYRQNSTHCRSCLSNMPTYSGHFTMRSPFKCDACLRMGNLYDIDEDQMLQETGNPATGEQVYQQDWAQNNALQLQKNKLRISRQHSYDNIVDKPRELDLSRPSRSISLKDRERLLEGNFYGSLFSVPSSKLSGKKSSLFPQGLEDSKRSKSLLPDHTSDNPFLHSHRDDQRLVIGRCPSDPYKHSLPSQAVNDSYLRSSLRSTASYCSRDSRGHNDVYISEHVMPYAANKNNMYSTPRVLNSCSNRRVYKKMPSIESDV

Structure (SMILES) | pEC50 [1] | pEC50 (NMDA receptor 2B) | Emax (NMDA receptor 2B)
CC[C@]1(O)CC[C@@]2(C)C(=CC(=O)[C@H]3C4CC[C@H]([C@H](C)CCC(C)(C)O)[C@@]4(C)CC[C@@H]32)C1 (some centres unmarked) [Compound U6461] | < 5.00 | < 5.00 | 53%
CC[C@]1(O)CC[C@@]2(C)C(=C[C@@H](O)[C@H]3[C@@H]4CC[C@H]([C@H](C)CCC(C)(C)O)[C@@]4(C)CC[C@@H]32)C1 [Compound U6450] |  | 7.18 | 111%
CC[C@]1(O)CC[C@@]2(C)[C@@H](CC(=O)[C@@H]3[C@@H]2CC[C@]2(C)[C@@H]([C@H](C)CCC(C)(C)O)CC[C@@H]32)C1 [Compound U6410] | < 5.00 | < 5.00 | 44%
CC[C@]1(O)CC[C@@]2(C)C(=C[C@@](C)(O)[C@H]3[C@@H]4CC[C@H]([C@H](C)CCC(C)(C)O)[C@@]4(C)CC[C@@H]32)C1 [Compound U6438] | < 5.00 | < 5.00 | 15%
CC[C@]1(O)CC[C@@]2(C)C(=C[C@H](O)[C@H]3[C@@H]4CC[C@H]([C@H](C)CCC(C)(C)O)[C@@]4(C)CC[C@@H]32)C1 [Compound U6429] |  | 6.18 | 109%
C[C@@H]1C=C2C[C@@](C)(O)CC[C@]2(C)[C@H]2CC[C@]3(C)[C@@H]([C@H](C)CC[C@](C)(O)C(F)(F)F)CC[C@H]3[C@H]12 [Compound U6472] |  | 7.66 | 231%
CC[C@]1(O)CC[C@@]2(C)C(=C[C@](C)(O)[C@H]3[C@@H]4CC[C@H]([C@H](C)CCC(C)(C)O)[C@@]4(C)CC[C@@H]32)C1 [Compound U6437] | 5.79 | 6.13 | 213%
CC[C@]1(O)CC[C@@]2(C)C(=C[C@@H](C)[C@H]3[C@@H]4CC[C@H]([C@H](C)CCC(C)(C)O)[C@@]4(C)CC[C@@H]32)C1 [Compound U6408] | 6.64 | 6.88 | 447%
C[C@@H]1C=C2C[C@@](C)(O)CC[C@]2(C)[C@H]2CC[C@]3(C)[C@@H]([C@H](C)CC4(O)CCC(C)(C)CC4)CC[C@H]3[C@H]12 [Compound U6477] | 6.13 | 6.16 | 86%
C[C@H](CC[C@](C)(O)C(F)(F)F)[C@H]1CC[C@H]2[C@@H]3[C@@H](C)C=C4C[C@@](C)(O)CC[C@]4(C)[C@H]3CC[C@]12C [Compound U6473] |  | < 5.00 | 47%
C[C@H](CC1(O)CCC(C)(C)CC1)[C@H]1CC[C@H]2[C@@H]3[C@@H](C)C=C4C[C@@](C)(O)CC[C@]4(C)[C@H]3CC[C@]12C [Compound U6478] | 6.72 | 6.80 | 127%
CC[C@]1(O)CC[C@@]2(C)C(=C[C@H](C)[C@H]3[C@@H]4CC[C@H]([C@H](C)CCC(C)(C)O)[C@@]4(C)CC[C@@H]32)C1 [Compound U6409] | < 5.00 | < 5.00 | 71%
CC[C@]1(O)CC[C@@]2(C)[C@@H](C[C@H](O)[C@@H]3[C@@H]2CC[C@]2(C)[C@@H]([C@H](C)CCC(C)(C)O)CC[C@@H]32)C1 [Compound U6479] | < 5.00 | 5.85 | 92%
